Test results: the supplement of paper PMC8253809

What was measured:
DIPGX37 = H3.3 K27M diffuse intrinsic pontine glioma line; test: growth inhibition relative to DMSO (0) and positive control (1) (fraction); higher = more growth inhibition
Method: (§1)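 Paxalisib (GDC0084) x mirdametinib (PD0325901) dose matrix on pHGG cell lines and astrocyte controls, 7 days, adherent 384-well. CellTiter-Glo RLU was normalised (no log2) to fractional activity between DMSO (0) and the positive control (1). Each combination was tested in two plate orientations.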

HGGX42 = H3.3 G34R paediatric high-grade glioma line; test: as above
Method: as §1

O=C(NOC[C@H](O)CO)c1ccc(F)c(F)c1Nc1ccc(I)cc1F + CC1(C)OCCn2c1nc1c(N3CCOCC3)nc(-c3cnc(N)nc3)nc12 [GDC0084]
growth inhibition
Details | compound 1 concentration 0.009766 µM | compound 1 concentration 0.01953 µM | compound 1 concentration 0.03906 µM | compound 1 concentration 0.07812 µM | compound 1 concentration 0.15625 µM | compound 1 concentration 0.3125 µM | compound 1 concentration 0.625 µM | compound 1 concentration 1.25 µM | compound 1 concentration 5 µM | compound 1 concentration 20 µM
DIPGX37, compound 2 concentration 0.03906 µM | -0.0653 | -0.109 | 0.00889 | 0.0388 | 0.199 | 0.341 | 0.484 | 0.642 | 0.948 | 0.988
DIPGX37, compound 2 concentration 0.07812 µM | 0.157 | 0.133 | 0.163 | 0.275 | 0.352 | 0.487 | 0.599 | 0.725 | 0.959 | 0.993
DIPGX37, compound 2 concentration 0.15625 µM | 0.264 | 0.281 | 0.316 | 0.412 | 0.485 | 0.618 | 0.728 | 0.829 | 0.983 | 0.997
DIPGX37, compound 2 concentration 0.3125 µM | 0.446 | 0.454 | 0.5 | 0.586 | 0.657 | 0.767 | 0.859 | 0.926 | 0.997 | 1
DIPGX37, compound 2 concentration 0.625 µM | 0.589 | 0.585 | 0.62 | 0.71 | 0.777 | 0.871 | 0.937 | 0.97 | 1 | 1
DIPGX37, compound 2 concentration 1.25 µM | 0.75 | 0.791 | 0.815 | 0.864 | 0.908 | 0.951 | 0.976 | 0.996 | 1 | 1
DIPGX37, compound 2 concentration 5 µM | 0.965 | 0.975 | 0.988 | 0.995 | 0.999 | 1 | 1 | 1 | 1 | 1
DIPGX37, compound 2 concentration 20 µM | 0.996 | 0.998 | 0.998 | 0.996 | 0.998 | 0.997 | 0.997 | 0.997 | 0.998 | 1
HGGX42, compound 2 concentration 0.03906 µM | 0.121 | 0.215 | -0.0211 | 0.146 | -0.0192 | 0.0136 | 0.0247 | 0.074 | 0.354 | 0.554
HGGX42, compound 2 concentration 0.07812 µM | 0.188 | 0.255 | 0.106 | 0.265 | 0.148 | 0.0907 | 0.211 | 0.153 | 0.575 | 0.609
HGGX42, compound 2 concentration 0.15625 µM | 0.307 | 0.29 | 0.478 | 0.322 | 0.224 | 0.377 | 0.32 | 0.341 | 0.477 | 0.686
HGGX42, compound 2 concentration 0.3125 µM | 0.494 | 0.466 | 0.484 | 0.515 | 0.431 | 0.424 | 0.294 | 0.326 | 0.507 | 0.716
HGGX42, compound 2 concentration 0.625 µM | 0.673 | 0.632 | 0.625 | 0.647 | 0.57 | 0.606 | 0.602 | 0.528 | 0.674 | 0.8
HGGX42, compound 2 concentration 1.25 µM | 0.782 | 0.743 | 0.746 | 0.753 | 0.748 | 0.706 | 0.723 | 0.703 | 0.803 | 0.895
HGGX42, compound 2 concentration 5 µM | 0.875 | 0.86 | 0.872 | 0.883 | 0.882 | 0.872 | 0.881 | 0.876 | 0.93 | 0.979
HGGX42, compound 2 concentration 20 µM | 0.898 | 0.898 | 0.901 | 0.911 | 0.908 | 0.899 | 0.907 | 0.908 | 0.956 | 0.986

CC1(C)OCCn2c1nc1c(N3CCOCC3)nc(-c3cnc(N)nc3)nc12 [GDC0084] + O=C(NOC[C@H](O)CO)c1ccc(F)c(F)c1Nc1ccc(I)cc1F [PD0325901]
growth inhibition
Details | compound 1 concentration 0.009766 µM | compound 1 concentration 0.01953 µM | compound 1 concentration 0.03906 µM | compound 1 concentration 0.07812 µM | compound 1 concentration 0.15625 µM | compound 1 concentration 0.3125 µM | compound 1 concentration 0.625 µM | compound 1 concentration 1.25 µM | compound 1 concentration 5 µM | compound 1 concentration 20 µM
DIPGX37, compound 2 concentration 0.03906 µM | -0.147 | -0.0916 | -0.0557 | 0.033 | 0.217 | 0.429 | 0.588 | 0.762 | 0.979 | 1
DIPGX37, compound 2 concentration 0.07812 µM | -0.0133 | 0.012 | 0.0971 | 0.209 | 0.356 | 0.514 | 0.694 | 0.823 | 0.99 | 1
DIPGX37, compound 2 concentration 0.15625 µM | 0.0798 | 0.113 | 0.192 | 0.297 | 0.433 | 0.58 | 0.744 | 0.879 | 0.999 | 1
DIPGX37, compound 2 concentration 0.3125 µM | 0.186 | 0.271 | 0.3 | 0.445 | 0.556 | 0.699 | 0.84 | 0.924 | 1 | 1
DIPGX37, compound 2 concentration 0.625 µM | 0.277 | 0.368 | 0.441 | 0.522 | 0.6 | 0.787 | 0.891 | 0.948 | 1 | 1
DIPGX37, compound 2 concentration 1.25 µM | 0.458 | 0.508 | 0.592 | 0.657 | 0.743 | 0.882 | 0.953 | 0.984 | 1 | 1
DIPGX37, compound 2 concentration 5 µM | 0.832 | 0.876 | 0.906 | 0.917 | 0.94 | 0.986 | 1 | 1 | 1 | 1
DIPGX37, compound 2 concentration 20 µM | 0.97 | 0.98 | 0.984 | 0.994 | 0.997 | 1 | 1 | 1 | 1 | 1
HGGX42, compound 2 concentration 0.03906 µM | -0.12 | -0.197 | 0.0384 | 0.0281 | 0.284 | 0.461 | 0.656 | 0.736 | 0.874 | 0.903
HGGX42, compound 2 concentration 0.07812 µM | -0.0889 | -0.0669 | -0.00719 | 0.153 | 0.248 | 0.404 | 0.631 | 0.729 | 0.855 | 0.919
HGGX42, compound 2 concentration 0.15625 µM | -0.145 | -0.107 | -0.0597 | 0.0866 | 0.181 | 0.411 | 0.625 | 0.714 | 0.835 | 0.915
HGGX42, compound 2 concentration 0.3125 µM | -0.136 | 0.0502 | -0.0893 | 0.0398 | 0.184 | 0.318 | 0.582 | 0.644 | 0.788 | 0.89
HGGX42, compound 2 concentration 0.625 µM | -0.166 | -0.0808 | -0.0757 | 0.0763 | 0.176 | 0.471 | 0.532 | 0.677 | 0.822 | 0.896
HGGX42, compound 2 concentration 1.25 µM | -0.0698 | -0.0338 | -0.0377 | 0.08 | 0.227 | 0.394 | 0.576 | 0.727 | 0.866 | 0.908
HGGX42, compound 2 concentration 5 µM | 0.307 | 0.337 | 0.354 | 0.431 | 0.481 | 0.564 | 0.688 | 0.774 | 0.907 | 0.95
HGGX42, compound 2 concentration 20 µM | 0.486 | 0.554 | 0.507 | 0.615 | 0.653 | 0.772 | 0.853 | 0.913 | 0.975 | 0.985
